Assay results: patent US4703061A, “Gamma-aminobutyric acid derivatives, process for production thereof, and use thereof as medicaments” (priority 1984, dated 1987)
Counter-ions that a name gives are not always drawn.

Columns and labels:
[1] = tested on: motor activity enhanced by methamphetamine; test: Antagonistic effect against methamphetamine (automex method); type: in vivo, ddY-strain male mice; settings: for Motor activity (total number of counts): 500 mg/kg i.p. + methamphetamine 3 mg/kg s.c.
Experimental: (§1) In Tests 1 to 4 given below, ddY-strain male mice (body weight 20-25 g) were used, and the experiments were carried out in a semi-soundproof, constant-temperature room kept at a temperature of 23±1° C. and a humidity of 55±2%. The mice were allowed to take feed and water freely.
Test 2: Antagonistic effect against methamphetamine (automex method)
Mice were used in 5-membered groups. Each of the test compounds was intraperitoneally administered to the mice in a predetermined dose, and immediately then, the mice were subcutaneously injected with methamphetamine in a dose of 3 mg/kg. The action of the test compounds on motor activity enhanced by methamphetamine was examined in accordance with the automex method given above.

[2] = tested on: sleeping induced by pentobarbital; test: Effect of prolonging the time of sleeping induced by pentobarbital; type: in vivo, ddY-strain male mice; settings: pentobarbital sodium 50 mg/kg s.c.
Experimental: as §1
Test 3: Effect of prolonging the time of sleeping induced by pentobarbital
The effects of the test compounds on sleeping induced by pentobarbital were examined. The disappearance of righting reflex for 5 seconds or more was used as an index of sleeping. Mice were divided into 10-membered groups. Each of the test compounds was intraperitoneally administered to the mice in the doses indicated. Immediately then, pentobarbital sodium salt was subcutaneously injected into the mice in a dose of 50 mg/kg, and the sleeping time was compared with that of a group to which pentobarbital alone was injected (control).

[3] = tested on: motor activity induced by atropine; test: Antagonistic effect against atropine (automex method); type: in vivo, ddY-strain male mice
Experimental: as §1
Test 4: Antagonistic effect against atropine (automex method)
Each of the test compounds was intraperitoneally administered to mice divided into 6-membered groups, and immediately then, atropine was subcutaneously injected into the mice in a dose of 30 mg/kg. The effect of each test compound on the enhancement of motor activity induced by atropine was examined in accordance with the automex method.

[4] = tested on: cycloheximide-induced amnesia model; test: Effects on CXM-induced amnesia (step-down retention test); type: in vivo, ddY-strain male mice; settings: for Escape learning latency (mean ± S.E.) / Step-down latency (mean ± S.E.): retention test 24 hours
Experimental: The test animals used were ddY-strain male mice (body weight 30-35 g). The experiment was carried out indoors at about 20° C., and the mice were allowed to take feed and water freely. 2. Effects on memorized behaviors
A device comprised of a floor grid surrounded on four sides by acrylic glass walls each having a lateral dimension of 21 cm and a wooden platform, 4×4×4 cm in size, fixed centrally to the floor grid was placed in a wooden semi-soundproof box having a size of 21×21×40 cm with a 15W electric bulb suspended from its ceiling.
The floor grid consisted of stainless steel rods, 3 mm in diameter, arranged at intervals of 8 mm. An intermittent electric shock (1 Hz, 0.5 sec., 60 V DC) was applied to the grid by an electric impulse apparatus and an isolator.
A mouse was placed in a predetermined direction on the platform. Immediately after the mouse stepped down onto the floor grid (when the mouse's four limbs left the platform), an electric shock was applied to the floor grid, and the intermittent application of the electric shock was continued until the mouse climbed up the platform to escape from the electric shock. The time which elapsed until the mouse stepped down from the platform (SDL, step down latency) and the time which elapsed until the mouse escaped to the platform from the electric shock (ELL, escape learning latency) were measured.
By the same procedure as in the training test, a mouse was placed on the platform, and its step down latency (SDL) was measured. The cut-off time was 300 seconds.
After the mouse stepped down, or the cut-off time elapsed, the mouse was placed on the floor grid at a corner of the device with its head directed in a direction opposite to the platform. An electric shock was applied to the mouse and its escape learning latency (ELL) was measured.
Mice divided into groups each consisting of not less than 20 mice were subjected to the training test, and immediately then subcutaneously injected with CXM (150 mg/kg). Twenty-four hours later, the mice was subjected to the retention test.
Immediately after administration of CXM or application of ECS, a 0.9% normal saline solution of each of the test compounds was intraperitoneally administered to the mice. Separately, a 5% gum arabic solution of CXM was administered to the mice in a control group.

[5] = background statement; cited from earlier work
[6] = background statement; cited from earlier work; remark: listed apart in the source
[7] = 500 mg/kg i.p., CXM 150 mg/kg s.c.
[8] = 1000 mg/kg i.p., CXM 150 mg/kg s.c.

SMILES: CC(C)(CO)C(O)C(=O)NCCCC(=O)O (stereo not drawn) [Ca salt of hopantenic acid, Calcium 4(2,4-dihydroxy3,3-dimethyl-butylamide)butyrate, reference compound]
- Motor activity (total number of counts) ([1]; 5 minutes): 26 counts
- Motor activity (total number of counts) ([1]; 10 minutes): 55 counts
- Motor activity (total number of counts) ([1]; 15 minutes): 94 counts
- Motor activity (total number of counts) ([1]; 20 minutes): 144 counts
- Motor activity (total number of counts) ([1]; 25 minutes): 273 counts
- Motor activity (total number of counts) ([1]; 30 minutes): 408 counts
- antagonistic effect against the increase of motor activity induced by methamphetamine ([1]; 500 mg/kg, result in words): scarcely observed
- Sleeping time ([2]; 1000 mg/kg i.p.): 57.0 ± 6.7 min
- Sleeping time ([2]; 2000 mg/kg i.p.): 67.0 ± 5.9 min
- Motor activity (total number of counts) ([3]; 600 mg/kg i.p. + atropine 30 mg/kg s.c., 5 minutes): 16 counts
- Motor activity (total number of counts) ([3]; 600 mg/kg i.p. + atropine 30 mg/kg s.c., 10 minutes): 16 counts
- Motor activity (total number of counts) ([3]; 600 mg/kg i.p. + atropine 30 mg/kg s.c., 15 minutes): 29 counts
- Motor activity (total number of counts) ([3]; 600 mg/kg i.p. + atropine 30 mg/kg s.c., 20 minutes): 56 counts
- Motor activity (total number of counts) ([3]; 600 mg/kg i.p. + atropine 30 mg/kg s.c., 25 minutes): 88 counts
- Motor activity (total number of counts) ([3]; 600 mg/kg i.p. + atropine 30 mg/kg s.c., 30 minutes): 151 counts
- Escape learning latency (mean ± S.E.) [4, 7]: 10.3 ± 0.7 s
- Step-down latency (mean ± S.E.) [4, 7]: 122.3 ± 13.0 s
- Escape learning latency (mean ± S.E.) [4, 8]: 8.2 ± 1.0 s
- Step-down latency (mean ± S.E.) [4, 8]: 187.7 ± 19.7 s
- Escape learning latency (mean ± S.E.) ([4]; 1000 mg/kg i.p., without CXM): 5.6 ± 0.8 s
- Step-down latency (mean ± S.E.) ([4]; 1000 mg/kg i.p., without CXM): 275.9 ± 9.7 s
- memory activating action ([4]; without CXM, vs control group, result in words): did not show memory activating action

SMILES: NCCCC(=O)O [gamma-aminobutyric acid]
- transmigration through the blood brain barrier [5]: hardly transmigrates through the blood brain barrier
- excretion into urine [6]: easily excreted into urine

SMILES: CN1[C@@H]2CC[C@H]1C[C@@H](OC(=O)C(CO)c1ccccc1)C2 (stereo partly drawn) [Atropine, atropine]
- Motor activity (total number of counts) ([3]; atropine alone, 30 mg/kg, 5 minutes): 59 counts
- Motor activity (total number of counts) ([3]; atropine alone, 30 mg/kg, 10 minutes): 233 counts
- Motor activity (total number of counts) ([3]; atropine alone, 30 mg/kg, 15 minutes): 425 counts
- Motor activity (total number of counts) ([3]; atropine alone, 30 mg/kg, 20 minutes): 620 counts
- Motor activity (total number of counts) ([3]; atropine alone, 30 mg/kg, 25 minutes): 806 counts
- Motor activity (total number of counts) ([3]; atropine alone, 30 mg/kg, 30 minutes): 964 counts
